Key:
complement = experiment: protection against spontaneous complement activation in complement-containing samples during in vitro storage (summary of fragment EIAs); assay type: biochemical, human
Description: A method for screening compounds to determine the complement preventing effectiveness thereof is described in detail in the course of the following experimental description and discussion. The method essentially comprises treating complement-containing samples with various doses of the test compounds, storing the thus-treated sample at conventional storage temperature for a minimum of about 48 hours and determining the extent of complement activation which occurs during the storage period by performing assays on the sample for various complement activation products. The results are compared with determination of the level of the same activation products at the beginning of the storage period, i.e., a non-incubated control sample. A non-treated control, comprising an identical sample diluted with phosphate buffered saline (PBS) in a volume ratio identical to that of the sample and polyhydroxyl solution is similarly assayed.
(§1) The concentrations, expressed as μg analyte/mL, of a number of different activation products of spontaneous complement activation were measured in the course of these experiments. In an effort to normalize the data obtained from the various determinations so that the results from different assays could be directly compared to one another, a percent protection value was calculated for each analyte measured. The precent protection values were calculated by dividing the μg analyte/mL in the non-incubated, time-zero control sample by the μg analyte/mL in the experimental sample, multiplied by 100%. A percent protection value of 70 to 130% for any given analyte measured in an experimental sample was considered to indicate that the invention formulation tested was fully effective at providing protection against the occurrence of spontaneous complement activation. Ideally, the effective composition formulation would provide full protection against the occurrence of spontaneous complement activation in a complement-containing sample for all of the analytes measured. In fact, this was the case with several polyhydroxyl compounds when they were present in sufficiently high concentrations in a preferred embodiment of the invention.
A percent protection value range of 70 to 130% was used as a criterion to define that a given invention embodiment was able to provide full protection against spontaneous complement activation for the following reasons: The coefficient of variation for the EIA kits employed in these studies ranged from 10-30% when analyte levels were measured in the very low range of values found in freshly-drawn normal human plasma samples. Therefore, in order to ensure that a given result fell within the variability range of the assays employed, a percent protection value between 70 and 130% was considered to represent a fully protective effect.

C3 = molecular target: T1, C3 (Homo sapiens, UniProt P01024); experiment: polyhydroxyl compounds in Buffer B mixed with EDTA-NHP: iC3b and C3d,g/iC3b fragment EIA; assay type: biochemical; conditions: final concentration 2M, 22° C. for 48 hr
T1 construct: 250 μL of freshly drawn EDTA-normal human plasma (EDTA-NHP); from tissue; host or cells: normal human blood plasma (EDTA plasma; in A12 also citrate and heparin plasma)
T1 sequence (P01024 672-1663 limits assumed): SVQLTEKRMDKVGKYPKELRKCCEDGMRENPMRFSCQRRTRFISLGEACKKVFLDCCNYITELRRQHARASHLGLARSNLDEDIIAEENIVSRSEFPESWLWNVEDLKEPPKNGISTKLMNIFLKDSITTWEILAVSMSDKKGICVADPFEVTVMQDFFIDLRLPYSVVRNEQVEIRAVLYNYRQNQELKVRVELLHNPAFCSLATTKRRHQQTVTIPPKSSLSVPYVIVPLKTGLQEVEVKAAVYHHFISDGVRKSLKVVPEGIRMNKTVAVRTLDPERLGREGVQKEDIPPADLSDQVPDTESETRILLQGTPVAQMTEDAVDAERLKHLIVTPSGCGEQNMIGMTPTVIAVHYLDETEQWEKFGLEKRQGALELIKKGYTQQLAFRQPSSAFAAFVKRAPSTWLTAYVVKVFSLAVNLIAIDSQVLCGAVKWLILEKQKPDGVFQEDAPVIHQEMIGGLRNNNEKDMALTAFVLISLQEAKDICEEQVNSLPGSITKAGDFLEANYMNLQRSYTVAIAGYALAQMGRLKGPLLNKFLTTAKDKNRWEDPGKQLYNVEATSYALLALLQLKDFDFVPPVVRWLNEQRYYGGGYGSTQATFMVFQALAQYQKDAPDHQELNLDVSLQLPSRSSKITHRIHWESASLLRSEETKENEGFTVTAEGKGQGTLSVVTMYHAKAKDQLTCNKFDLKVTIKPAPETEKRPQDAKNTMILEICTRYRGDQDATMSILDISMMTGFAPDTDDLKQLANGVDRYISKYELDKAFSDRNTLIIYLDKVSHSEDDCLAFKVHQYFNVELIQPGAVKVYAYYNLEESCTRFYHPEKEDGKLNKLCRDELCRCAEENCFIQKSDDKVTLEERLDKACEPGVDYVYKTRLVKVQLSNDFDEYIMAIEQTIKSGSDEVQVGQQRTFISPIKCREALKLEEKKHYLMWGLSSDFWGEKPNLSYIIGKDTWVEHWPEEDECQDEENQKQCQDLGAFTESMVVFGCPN
T1 sequence (P01024 23-667 limits assumed): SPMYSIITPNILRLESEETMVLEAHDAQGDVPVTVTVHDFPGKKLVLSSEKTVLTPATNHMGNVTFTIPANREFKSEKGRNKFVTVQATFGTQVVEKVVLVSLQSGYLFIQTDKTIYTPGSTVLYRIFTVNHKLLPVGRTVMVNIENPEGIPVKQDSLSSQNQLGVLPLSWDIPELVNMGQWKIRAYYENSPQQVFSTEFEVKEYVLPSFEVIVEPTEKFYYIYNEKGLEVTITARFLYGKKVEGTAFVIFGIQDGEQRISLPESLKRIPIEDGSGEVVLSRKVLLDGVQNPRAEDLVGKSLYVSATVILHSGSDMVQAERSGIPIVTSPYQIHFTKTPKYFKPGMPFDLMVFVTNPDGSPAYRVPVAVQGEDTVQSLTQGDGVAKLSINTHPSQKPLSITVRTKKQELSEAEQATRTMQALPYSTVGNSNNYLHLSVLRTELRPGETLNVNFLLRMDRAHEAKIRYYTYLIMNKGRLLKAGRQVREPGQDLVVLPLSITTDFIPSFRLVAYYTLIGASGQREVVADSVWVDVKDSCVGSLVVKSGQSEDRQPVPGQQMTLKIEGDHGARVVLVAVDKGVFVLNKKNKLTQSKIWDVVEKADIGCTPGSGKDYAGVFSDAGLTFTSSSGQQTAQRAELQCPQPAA
Description: (§2) An extensive series of experiments were conducted to examine the ability of a large variety of polyhydroxyl compounds to prevent the spontaneous activation of C in EDTA-NHP during in vitro storage at 22° C for 48 hr. EDTA-NHP was mixed with an equal volume of Buffer B containing the polyhydroxyl compound to be tested. In these experiments Buffer B consisted of 40 mM EDTA and 30 IU sodium heparin/mL dissolved in deionized water, pH 7.2. The final concentration of polyhydroxyl compound dissolved in Buffer B varied for each compound due to differences in solubility. For each set of experiments, EDTA-NHP was also diluted and mixed with an equal volume of PBS (untreated control). The EDTA-NHP samples mixed with each polyhydroxyl compound dissolved in Buffer B and the corresponding untreated controls were incubated at 22° C. for 48 hr, stored at -70° C. and subsequently assayed for C4d, iC3b, C3d,g/iC3b and Bb complement fragment levels as well as for circulating immune complex levels using the Raji Cell Replacement EIA. […] This conclusion was based upon the iC3b percent protection values determined for each of the polyhydroxyl compounds (treated samples) as listed in FIG. 14.
as §1
A plasma dilution of 1:50 and a serum dilution of 1:100 were used in the iC3b fragment EIA tests. The immunochemical reaction specificity of MoAb 013III-1.1.6.1 has been published previously in abstract form, W. P. Kolb, et al., Fed. Proc. 44:990 (1985).
A plasma dilution of 1:250 and a serum dilution of 1:500 were used in the C3d,g/iC3b EIA tests. […] 135:2015-2019 (1985); Y. Kanayama, et al., J. Immunol. Meth. 88:33-36 (1986). The immunochemical reaction specificity of the Cytotech MoAb 013III-31.4.3.2.2has been published previously in abstract form, W. P. Kolb, et al., FASEB Journal 2:A1834 (1988).

C4 = experiment: polyhydroxyl compounds in Buffer B mixed with EDTA-NHP: C4d fragment EIA; assay type: biochemical, human; conditions: final concentration 2M, 22° C. for 48 hr
Description: as §2, §1

Factor B = molecular target: T2, Factor B (Homo sapiens, UniProt P00751); experiment: polyhydroxyl compounds in Buffer B mixed with EDTA-NHP: Bb fragment EIA; assay type: biochemical; conditions: final concentration 2M, 22° C. for 48 hr
T2 construct: from tissue; host or cells: normal human EDTA plasma (EDTA-NHP)
T2 sequence (P00751 26-764): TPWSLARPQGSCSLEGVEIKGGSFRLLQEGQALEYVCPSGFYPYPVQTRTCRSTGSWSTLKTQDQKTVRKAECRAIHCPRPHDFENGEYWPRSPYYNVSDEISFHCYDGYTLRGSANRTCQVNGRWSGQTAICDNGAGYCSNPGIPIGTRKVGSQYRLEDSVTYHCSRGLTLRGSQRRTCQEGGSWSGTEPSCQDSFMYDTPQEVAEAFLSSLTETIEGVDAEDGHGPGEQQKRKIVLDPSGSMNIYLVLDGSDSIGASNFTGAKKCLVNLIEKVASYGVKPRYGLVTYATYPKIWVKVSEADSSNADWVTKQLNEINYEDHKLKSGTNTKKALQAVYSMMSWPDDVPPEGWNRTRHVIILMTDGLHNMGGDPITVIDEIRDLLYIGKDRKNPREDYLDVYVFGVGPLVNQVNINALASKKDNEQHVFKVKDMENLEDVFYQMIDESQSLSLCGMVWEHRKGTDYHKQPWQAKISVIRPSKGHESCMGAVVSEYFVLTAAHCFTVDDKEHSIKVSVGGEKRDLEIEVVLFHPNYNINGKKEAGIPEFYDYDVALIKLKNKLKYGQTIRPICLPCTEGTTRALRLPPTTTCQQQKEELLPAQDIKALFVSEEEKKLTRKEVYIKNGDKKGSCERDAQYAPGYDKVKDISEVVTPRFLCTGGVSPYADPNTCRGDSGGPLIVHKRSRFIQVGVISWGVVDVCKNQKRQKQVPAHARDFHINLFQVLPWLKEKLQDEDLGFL
Description: as §2, with “control).” for “control). The EDTA-NHP samples mixed with each polyhydroxyl compound dissolved in Buffer B and the corresponding untreated controls were incubated at 22° C. for 48 hr, stored at -70° C. and subsequently assayed for C4d, iC3b, C3d,g/iC3b and Bb complement fragment levels as well as for circulating immune complex levels using the Raji Cell Replacement EIA.”
The concentrations, expressed as μg analyte/mL, of a number of different activation products of spontaneous complement activation were measured in the course of these experiments. In an effort to normalize the data obtained from the various determinations so that the results from different assays could be directly compared to one another, a percent protection value was calculated for each analyte measured. […]

prevention of spontaneous activation of C3 (C3): completely prevented | prevention of spontaneous activation of Factor B (Bb fragment production) (Factor B): completely prevented
SMILES: OC[C@H]1O[C@@H](O)[C@H](O)[C@@H](O)[C@@H]1O [β-D-glucose]
final concentration identified as particularly effective (complement; added to a complement-containing sample): ≥ 1.33 M | range of final concentrations found to provide protection against spontaneous complement activation (complement; complement-containing samples during in vitro storage): 0.5 to 4 M | acceptable range of final concentration at which spontaneous C activation will be prevented (complement; ingredient of the formulation): ≥ 1.3 M | prevention of spontaneous activation of C4 (C4d fragment production) (C4): completely prevented
